For 17 compounds, IC50 and Ki results are on record in ChEMBL document CHEMBL3797165, “Synthesis and biological evaluation of novel 1,2,4-triazine derivatives bearing carbazole moiety as potent α-glucosidase inhibitors” (Bioorg Med Chem Lett, 2016).

The first test is described as follows: Inhibition of Saccharomyces cerevisiae alpha-glucosidase using para-nitrophenyl-alpha-D-glucopyranoside as substrate preincubated for 15 mins followed by substrate addition measured after 30 mins by spectrophotometric method.
One may read the IC50 as the point on the concentration scale where inhibition reaches its midpoint. The low end stands for greater potency in that assay, the high end for weaker potency in that assay. `OC(CSc1nnc(-c2ccco2)c(-c2ccco2)n1)Cn1c2ccccc2c2ccccc21` (stereo not drawn): the IC50 is 17.7 µM.

Regarding `OC(CSc1nnc(-c2cccc(Br)c2)c(-c2cccc(Br)c2)n1)Cn1c2ccccc2c2ccccc21` (stereo not drawn), the IC50 was found to be 20.1 µM.

As to `OC(CSc1nnc(-c2ccc(F)cc2)c(-c2ccc(F)cc2)n1)Cn1c2ccccc2c2ccccc21` (stereo not drawn), the IC50 turned out to be 17.6 µM.

In turn, `OC(CSc1nnc(-c2ccccc2F)c(-c2ccccc2F)n1)Cn1c2ccccc2c2ccccc21` (stereo not drawn) came in with an IC50 of 21.1 µM.

The compound `O=[N+]([O-])c1ccc2c(c1)c1ccccc1n2CC(O)CSc1nnc(-c2ccccc2F)c(-c2ccccc2F)n1` (stereo not drawn) gave an IC50 of 22.1 µM.

`OC(CSc1nnc(-c2ccccc2)c(-c2ccccc2)n1)Cn1c2ccc(Cl)cc2c2cc(Cl)ccc21` (stereo not drawn) displayed an IC50 of 27.8 µM.

Consider `OC(CSc1nnc(-c2cccc(Br)c2)c(-c2cccc(Br)c2)n1)Cn1c2ccc(Cl)cc2c2cc(Cl)ccc21` (stereo not drawn), for which the IC50 was 19.2 µM.

Compound `OC(CSc1nnc(-c2ccccc2Cl)c(-c2ccccc2Cl)n1)Cn1c2ccccc2c2ccccc21` (stereo not drawn) showed an IC50 of 47.8 µM.

The compound `OC(CSc1nnc(-c2ccccc2)c(-c2ccccc2)n1)Cn1c2ccccc2c2ccccc21` (stereo not drawn) yielded an IC50 of 31.3 µM.

`OC(CSc1nnc(-c2cccc(F)c2)c(-c2cccc(F)c2)n1)Cn1c2ccc(Cl)cc2c2cc(Cl)ccc21` (stereo not drawn) had a concentration for half-maximal inhibition (IC50) of 33.1 µM.

With `OC(CSc1nnc(-c2cccc(Br)c2)c(-c2cccc(Br)c2)n1)Cn1c2ccc(Br)cc2c2cc(Br)ccc21` (stereo not drawn), it took 9.56 µM to reach half-maximal inhibition (IC50).

Compound `OC(CSc1nnc(-c2ccccc2)c(-c2ccccc2)n1)Cn1c2ccc(Br)cc2c2cc(Br)ccc21` (stereo not drawn) showed an IC50 of 19.3 µM.

On to `OC(CSc1nnc(-c2ccco2)c(-c2ccco2)n1)Cn1c2ccc(Br)cc2c2cc(Br)ccc21` (stereo not drawn), for which the IC50 is 4.27 µM.

Regarding `OC(CSc1nnc(-c2ccco2)c(-c2ccco2)n1)Cn1c2ccc(Cl)cc2c2cc(Cl)ccc21` (stereo not drawn), 9.24 µM corresponded to half-maximal inhibition (IC50).

As for `O=[N+]([O-])c1ccc2c(c1)c1ccccc1n2CC(O)CSc1nnc(-c2ccccc2)c(-c2ccccc2)n1` (stereo not drawn), the IC50 was 25 µM.

`OC(CSc1nnc(-c2ccccc2F)c(-c2ccccc2F)n1)Cn1c2ccc(Br)cc2c2cc(Br)ccc21` (stereo not drawn) yielded an IC50 of 12.8 µM.

The compound `C[C@@H]1O[C@@H](O[C@@H]2[C@@H](O)[C@H](O)[C@H](O[C@H]3[C@H](O)[C@@H](O)C(O)O[C@@H]3CO)O[C@H]2CO)[C@@H](O)[C@H](O)[C@H]1N[C@H]1C=C(CO)[C@@H](O)[C@H](O)[C@H]1O` (stereo partly drawn) registered an IC50 of 996 µM.

The next test in a line: Non-competitive inhibition of Saccharomyces cerevisiae alpha-glucosidase using para-nitrophenyl-alpha-D-glucopyranoside as substrate preincubated for 15 mins followed by substrate addition measured after 30 mins by Lineweaver-Burk plot analysis.
By Ki is commonly meant the dissociation constant of the complex between target and ligand, obtained from inhibition or displacement. Lower therefore signals tighter binding. On to `OC(CSc1nnc(-c2ccco2)c(-c2ccco2)n1)Cn1c2ccc(Br)cc2c2cc(Br)ccc21` (stereo not drawn), for which affinity was put at a Ki of 4.43 µM.
